Columns and labels:
Format in all cases: cell-based
[1] = system: Enterococcus faecalis (EFA); assay: MIC, two-fold agar dilution (CLSI), clinical isolates
How it was run: (§1)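 CLSI two-fold agar dilution; MIC of test samples read per tested strain.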

[2] = system: Enterococcus faecium (EFM); assay: as above
How it was run: as §1

[3] = system: Escherichia coli (including ESBLs, non-ESBLs); assay: as above; details: for Anti-bacterial activity (MIC), strain ECO+ 15-1: clinical isolate ECO+ 15-1; for Anti-bacterial activity (MIC), strain ECO+ 15-2: clinical isolate ECO+ 15-2; for Anti-bacterial activity (MIC), strain ECO+ 15-3: clinical isolate ECO+ 15-3; for Anti-bacterial activity (MIC), strain ECO+ 15-4: clinical isolate ECO+ 15-4; for Anti-bacterial activity (MIC), strain ECO− 15-1: clinical isolate ECO− 15-1; for Anti-bacterial activity (MIC), strain ECO− 15-2: clinical isolate ECO− 15-2; for Anti-bacterial activity (MIC), strain ECO− 15-3: clinical isolate ECO− 15-3; for Anti-bacterial activity (MIC), strain ECO− 15-4: clinical isolate ECO− 15-4
How it was run: as §1

[4] = system: Moraxella catarrhalis (BCA); assay: as above
How it was run: as §1

[5] = system: Streptococcus pneoumoniae (SPN); assay: as above
How it was run: as §1

[6] = system: methicillin-resistant Staphylococcus aureus (MRSA); assay: as above; details: for Anti-bacterial activity (MIC), strain MRSA 15-1: clinical isolate MRSA 15-1; for Anti-bacterial activity (MIC), strain MRSA 15-2: clinical isolate MRSA 15-2; for Anti-bacterial activity (MIC), strain MRSA 15-3: clinical isolate MRSA 15-3; for Anti-bacterial activity (MIC), strain MRSA 15-4: clinical isolate MRSA 15-4
How it was run: as §1

[7] = system: methicillin-resistant Staphylococcus epidermidis (MRSE); assay: as above; details: for Anti-bacterial activity (MIC), strain MRSE 15-1: clinical isolate MRSE 15-1; for Anti-bacterial activity (MIC), strain MRSE 15-2: clinical isolate MRSE 15-2; for Anti-bacterial activity (MIC), strain MRSE 15-3: clinical isolate MRSE 15-3; for Anti-bacterial activity (MIC), strain MRSE 15-7: clinical isolate MRSE 15-7
How it was run: as §1

[8] = system: methicillin-sensitive Staphylococcus aureus (MSSA); assay: as above; details: for Anti-bacterial activity (MIC), strain MSSA 15-3: clinical isolate MSSA 15-3; for Anti-bacterial activity (MIC), strain MSSA 15-4: clinical isolate MSSA 15-4; for Anti-bacterial activity (MIC), strain MSSA 15-5: clinical isolate MSSA 15-5; for Anti-bacterial activity (MIC), strain MSSA 15-6: clinical isolate MSSA 15-6
How it was run: as §1

[9] = system: methicillin-sensitive Staphylococcus epidermidis (MSSE); assay: as above; details: for Anti-bacterial activity (MIC), strain MSSE 15-3: clinical isolate MSSE 15-3; for Anti-bacterial activity (MIC), strain MSSE 15-4: clinical isolate MSSE 15-4; for Anti-bacterial activity (MIC), strain MSSE 15-5: clinical isolate MSSE 15-5; for Anti-bacterial activity (MIC), strain MSSE 15-6: clinical isolate MSSE 15-6
How it was run: as §1

[10] = system: HCT-116 colorectal cancer cell line; assay: CCK-8 proliferation inhibition; details: Homo sapiens, HCT-116, 72 h, concentration of 30 μM; 72 hours; CCK-8; read-out: HCT116 inhibition rate/%
How it was run: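 Cells were plated overnight at 2000 cells/well, then compound in culture medium was added at a range of final concentrations. After 72 hours in a CO2 incubator, medium was replaced with 1:10 CCK-8 solution for the read-out.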

CCCC[C@H](CC(=O)NO)C(=O)N1CC2(CC2)C[C@H]1c1nc2ccccc2n1CCN(C)C [Example 60, (R)-3-((S)-6-(1-(2-(dimethylamino)ethyl)-1H-benzimidazol-2-yl)-5-azaspiro[2.4]heptane-5-carbonyl)-N-hydroxyheptanamide]
Anti-bacterial activity (MIC), strain EFA 15-1 ([1]; clinical isolate EFA 15-1): > 32 µg/mL | Anti-bacterial activity (MIC), strain EFA 15-2 ([1]; clinical isolate EFA 15-2): > 32 µg/mL | Anti-bacterial activity (MIC), strain EFA 15-3 ([1]; clinical isolate EFA 15-3): > 32 µg/mL | Anti-bacterial activity (MIC), strain EFA 15-4 ([1]; clinical isolate EFA 15-4): > 32 µg/mL | Anti-bacterial activity (MIC), strain EFA 15-5 ([1]; clinical isolate EFA 15-5): > 32 µg/mL | Anti-bacterial activity (MIC), strain EFA 15-6 ([1]; clinical isolate EFA 15-6): > 32 µg/mL | Anti-bacterial activity (MIC), strain EFA 15-9 ([1]; clinical isolate EFA 15-9): > 32 µg/mL | Anti-bacterial activity (MIC), strain EFM 15-1 ([2]; clinical isolate EFM 15-1): > 32 µg/mL | Anti-bacterial activity (MIC), strain EFM 15-2 ([2]; clinical isolate EFM 15-2): > 32 µg/mL | Anti-bacterial activity (MIC), strain EFM 15-3 ([2]; clinical isolate EFM 15-3): > 32 µg/mL | Anti-bacterial activity (MIC), strain EFM 15-4 ([2]; clinical isolate EFM 15-4): > 32 µg/mL | Anti-bacterial activity (MIC), strain EFM 15-5 ([2]; clinical isolate EFM 15-5): 8 µg/mL | Anti-bacterial activity (MIC), strain EFM 15-6 ([2]; clinical isolate EFM 15-6): 32 µg/mL | Anti-bacterial activity (MIC), strain ECO+ 15-1 [3]: > 32 µg/mL | Anti-bacterial activity (MIC), strain ECO+ 15-2 [3]: > 32 µg/mL | Anti-bacterial activity (MIC), strain ECO+ 15-3 [3]: > 32 µg/mL | Anti-bacterial activity (MIC), strain ECO+ 15-4 [3]: > 32 µg/mL | Anti-bacterial activity (MIC), strain ECO− 15-1 [3]: > 32 µg/mL | Anti-bacterial activity (MIC), strain ECO− 15-2 [3]: > 32 µg/mL | Anti-bacterial activity (MIC), strain ECO− 15-3 [3]: > 32 µg/mL | Anti-bacterial activity (MIC), strain ECO− 15-4 [3]: > 32 µg/mL | Anti-bacterial activity (MIC), strain BCA 14-1 ([4]; clinical isolate BCA 14-1): > 32 µg/mL | Anti-bacterial activity (MIC), strain BCA 14-4 ([4]; clinical isolate BCA 14-4): > 32 µg/mL | Anti-bacterial activity (MIC), strain BCA 14-5 ([4]; clinical isolate BCA 14-5): > 32 µg/mL | Anti-bacterial activity (MIC), strain BCA 14-6 ([4]; clinical isolate BCA 14-6): > 32 µg/mL | Anti-bacterial activity (MIC), strain BCA 14-7 ([4]; clinical isolate BCA 14-7): > 32 µg/mL | Anti-bacterial activity (MIC), strain BCA 14-8 ([4]; clinical isolate BCA 14-8): > 32 µg/mL | Anti-bacterial activity (MIC), strain BCA 14-10 ([4]; clinical isolate BCA 14-10): > 32 µg/mL | Anti-bacterial activity (MIC), strain SPN 16-2 ([5]; clinical isolate SPN 16-2): 1 µg/mL | Anti-bacterial activity (MIC), strain SPN 16-4 ([5]; clinical isolate SPN 16-4): 1 µg/mL | Anti-bacterial activity (MIC), strain MRSA 15-1 [6]: > 32 µg/mL | Anti-bacterial activity (MIC), strain MRSA 15-2 [6]: > 32 µg/mL | Anti-bacterial activity (MIC), strain MRSA 15-3 [6]: > 32 µg/mL | Anti-bacterial activity (MIC), strain MRSA 15-4 [6]: > 32 µg/mL | Anti-bacterial activity (MIC), strain MRSE 15-1 [7]: > 32 µg/mL | Anti-bacterial activity (MIC), strain MRSE 15-2 [7]: > 32 µg/mL | Anti-bacterial activity (MIC), strain MRSE 15-3 [7]: > 32 µg/mL | Anti-bacterial activity (MIC), strain MRSE 15-7 [7]: > 32 µg/mL | Anti-bacterial activity (MIC), strain MSSA 15-3 [8]: > 32 µg/mL | Anti-bacterial activity (MIC), strain MSSA 15-4 [8]: > 32 µg/mL | Anti-bacterial activity (MIC), strain MSSA 15-5 [8]: > 32 µg/mL | Anti-bacterial activity (MIC), strain MSSA 15-6 [8]: > 32 µg/mL | Anti-bacterial activity (MIC), strain MSSE 15-3 [9]: > 32 µg/mL | Anti-bacterial activity (MIC), strain MSSE 15-4 [9]: > 32 µg/mL | Anti-bacterial activity (MIC), strain MSSE 15-5 [9]: > 32 µg/mL | Anti-bacterial activity (MIC), strain MSSE 15-6 [9]: > 32 µg/mL | inhibition at 30 µM [10]: -2%

O=C(C[C@@H](CC1CCCC1)C(=O)N1CC2(CC2)C[C@H]1C(=O)NC1CC1)NO [Example 68]
Anti-bacterial activity (MIC) ([1]; strain EFA 15-1): > 32 µg/mL | Anti-bacterial activity (MIC) ([1]; strain EFA 15-2): > 32 µg/mL | Anti-bacterial activity (MIC) ([1]; strain EFA 15-3): > 32 µg/mL | Anti-bacterial activity (MIC) ([1]; strain EFA 15-4): > 32 µg/mL | Anti-bacterial activity (MIC) ([1]; strain EFA 15-5): > 32 µg/mL | Anti-bacterial activity (MIC) ([1]; strain EFA 15-6): > 32 µg/mL | Anti-bacterial activity (MIC) ([1]; strain EFA 15-9): 32 µg/mL | Anti-bacterial activity (MIC) ([2]; strain EFM 15-1): > 32 µg/mL | Anti-bacterial activity (MIC) ([2]; strain EFM 15-2): > 32 µg/mL | Anti-bacterial activity (MIC) ([2]; strain EFM 15-3): > 32 µg/mL | Anti-bacterial activity (MIC) ([2]; strain EFM 15-4): 32 µg/mL | Anti-bacterial activity (MIC) ([2]; strain EFM 15-5): 4 µg/mL | Anti-bacterial activity (MIC) ([2]; strain EFM 15-6): 4 µg/mL | Anti-bacterial activity (MIC), strain ECO+ 15-1 [3]: > 32 µg/mL | Anti-bacterial activity (MIC), strain ECO+ 15-2 [3]: > 32 µg/mL | Anti-bacterial activity (MIC), strain ECO+ 15-3 [3]: > 32 µg/mL | Anti-bacterial activity (MIC), strain ECO+ 15-4 [3]: > 32 µg/mL | Anti-bacterial activity (MIC), strain ECO− 15-1 [3]: > 32 µg/mL | Anti-bacterial activity (MIC), strain ECO− 15-2 [3]: > 32 µg/mL | Anti-bacterial activity (MIC), strain ECO− 15-3 [3]: > 32 µg/mL | Anti-bacterial activity (MIC), strain ECO− 15-4 [3]: > 32 µg/mL | Anti-bacterial activity (MIC) ([4]; strain BCA 14-1): 32 µg/mL | Anti-bacterial activity (MIC) ([4]; strain BCA 14-4): 32 µg/mL | Anti-bacterial activity (MIC) ([4]; strain BCA 14-5): 4 µg/mL | Anti-bacterial activity (MIC) ([4]; strain BCA 14-6): 32 µg/mL | Anti-bacterial activity (MIC) ([4]; strain BCA 14-7): 32 µg/mL | Anti-bacterial activity (MIC) ([4]; strain BCA 14-8): 32 µg/mL | Anti-bacterial activity (MIC) ([4]; strain BCA 14-10): 2 µg/mL | Anti-bacterial activity (MIC) ([5]; strain SPN 16-2): 2 µg/mL | Anti-bacterial activity (MIC) ([5]; strain SPN 16-4): 1 µg/mL | Anti-bacterial activity (MIC), strain MRSA 15-1 [6]: > 32 µg/mL | Anti-bacterial activity (MIC), strain MRSA 15-2 [6]: > 32 µg/mL | Anti-bacterial activity (MIC), strain MRSA 15-3 [6]: > 32 µg/mL | Anti-bacterial activity (MIC), strain MRSA 15-4 [6]: > 32 µg/mL | Anti-bacterial activity (MIC), strain MRSE 15-1 [7]: > 32 µg/mL | Anti-bacterial activity (MIC), strain MRSE 15-2 [7]: > 32 µg/mL | Anti-bacterial activity (MIC), strain MRSE 15-3 [7]: > 32 µg/mL | Anti-bacterial activity (MIC), strain MRSE 15-7 [7]: > 32 µg/mL | Anti-bacterial activity (MIC), strain MSSA 15-3 [8]: > 32 µg/mL | Anti-bacterial activity (MIC), strain MSSA 15-4 [8]: > 32 µg/mL | Anti-bacterial activity (MIC), strain MSSA 15-5 [8]: > 32 µg/mL | Anti-bacterial activity (MIC), strain MSSA 15-6 [8]: > 32 µg/mL | Anti-bacterial activity (MIC), strain MSSE 15-3 [9]: > 32 µg/mL | Anti-bacterial activity (MIC), strain MSSE 15-4 [9]: > 32 µg/mL | Anti-bacterial activity (MIC), strain MSSE 15-5 [9]: > 32 µg/mL | Anti-bacterial activity (MIC), strain MSSE 15-6 [9]: > 32 µg/mL | inhibition at 30 µM [10]: 21%

Source: US10738028B2, “Spiro three-membered ring, spiro five-membered ring peptide deformylase inhibitor and use thereof in antibacteria and anti-tumor” (priority 2016, dated 2020)
